Counter-ions that a name gives are not always drawn. Like-named read-outs stand apart in the source and are kept apart here.
Assays:
HCV NS3 helicase [1] = molecular target: T1, HCV NS3 helicase (Hepatitis C virus genotype 1b, UniProt P26662); experiment: FRET-based fluorescence helicase assay (dsRNA unwinding); assay type: biochemical
T1 construct: The full-length HCV NS3 protein, with serine protease and NTPase/helicase activities; made in house
Method: A fluorescence helicase assay based on FRET [26, 27], with modifications in the fluorescent dyes, was used to examine NS3 helicase inhibition by different compounds. […] The concentration of the capture strand was optimized to 400 nM based on the Z′ value; the Z′ value validates assay conditions as having reliability and reproducibility when its value is close to 1.
The FRET-based fluorescence helicase assay was performed as described previously, with modifications in the fluorescent dyes used. The dsRNA substrate was prepared by annealing the 5′ Alexa Fluor 700-labeled fluorescence strand to the 3′ BHQ3-labeled quencher strand in a 1:2 molar ratio. The dsRNA substrate contained the 3′-overhang that is necessary for the NS3 helicase to bind to it prior to duplex unwinding. The capture strand had sequence complementary to the quencher strand and prevented the unwound duplexes from reannealing. All the nucleic acid strands had the same nucleic acid sequences as described previously and were purchased from Japan Bio Services (Saitama, Japan). The reaction mixture contained 25 mM MOPS-NaOH (pH 6.5), 3 mM MgCl2, 2 mM dithiothreitol, 4 U RNasin (Promega, Madison, WI, USA), 50 nM dsRNA substrate, 400 nM capture strand, 5 mM ATP, a serial dilution of test compounds in DMSO vehicle, and 240 nM NS3 helicase in a total reaction volume of 20 µL. The full-length HCV NS3 protein, with serine protease and NTPase/helicase activities, was expressed and purified as described previously.
The reaction was started by the addition of HCV NS3 helicase and was performed at 37 °C for 30 min in a SpectraMax Gemini XS microplate reader (Molecular Devices, Sunnyvale, CA, USA). The fluorescence intensity was recorded every 20 s for 30 min. Helicase activity was calculated as the initial reaction velocity relative to that of the control (in the absence of a test compound but presence of DMSO vehicle). The IC50 was calculated using KaleidaGraph (Synergy Software, Reading, PA, USA) by fitting plots of % activity vs. [I] using Equation (1) unless otherwise stated: (1) % Activity= 100/1+([I]/IC50)^h where h is the Hill coefficient, and [I] is the inhibitor concentration.

HCV NS3 helicase [2] = molecular target: T1, HCV NS3 helicase; experiment: Gel-based helicase assay; assay type: biochemical; conditions: compared with the fluorescence helicase assay, Figure S2
Method: A gel-based helicase assay was performed as described previously. The dsRNA substrate was prepared by annealing the 5′ Alexa Fluor 488-labeled fluorescence strand to the non-labeled complementary strand in a 1:2 molar ratio. The dsRNA substrate and the capture strand had the same nucleic acid sequences as those used in the FRET-based fluorescence helicase assay, and were purchased from Japan Bio Services. The reaction mixture for HCV NS3 helicase had the same components as those used in the FRET-based fluorescence helicase assay, with increasing concentrations of a test compound in a total reaction volume of 20 µL, except for the fact that the concentration of the capture strand was 100 nM. The reaction was started by the addition of HCV NS3 helicase and performed at 37 °C for 60 min using the GeneAmp PCR System 2700 (Applied Biosystems, Foster City, CA, USA). […] The helicase activity was calculated as the ratio of the signal intensity derived from ssRNA in the sample containing inhibitor to that in the control sample containing DMSO vehicle instead of inhibitor.

[3] = tested on: Huh-7 cell line harboring the subgenomic replicon RNAs of HCV genotype 1b strain N; experiment: HCV replicon assay (luciferase); assay type: cell-based, Hepatitis C virus; conditions: for EC50: Hepatitis C virus, HCV subgenomic replicon, genotype 1b strain N, Huh-7, 72 h, mean ± SD of three replicates, read-out: EC50 (inhibition of HCV replication)
Method: The Huh-7 cell line harboring the subgenomic replicon RNAs of HCV genotype 1b strain N [51] was seeded at 2 × 10^4 cells per well in a 48-well plate and incubated at 37 °C for 24 h. The cells were treated with hypericin or sennidin A at various concentrations at 37 °C for 72 h, and then lysed in cell culture lysis reagent (Promega). A luciferase assay system (Promega) was used to determine the luciferase activity, and the luminescence was measured using a Luminescencer-JNR AB-2100 (ATTO, Tokyo, Japan), corresponding to the expression level of the HCV replicon. The anti-HCV activity of hypericin or sennidin A was calculated as the ratio of the intensity of the luminescence in the sample containing inhibitor to that in the control sample containing DMSO vehicle instead of inhibitor.

Cytotoxicity assay (MTS) = assay type: cell-based; conditions: human, Huh-7 replicon cells, mean ± SD of three replicates, read-out: CC50 (reduction in cell viability)
Method: The Huh-7 cell line harboring the subgenomic replicon RNAs of HCV genotype 1b strain N [51] was seeded at 2 × 10^4 cells per well in a 48-well plate and incubated at 37 °C for 24 h. The cells were treated with hypericin or sennidin A at various concentrations at 37 °C for 72 h. The MTS assay was carried out to determine cytotoxicity using a CellTiter 96 aqueous one-solution cell proliferation assay kit (Promega) according to the manufacturer’s instructions. The cytotoxicity of hypericin or sennidin A was calculated as the ratio of the […] in the sample containing inhibitor to that in the control sample containing DMSO vehicle instead of inhibitor.

NS3 helicase = conditions: read-out: IC50 for NS3 helicase inhibition, cited from earlier work
NS3 RNA-binding activity = molecular target: T2, NS3 RNA-binding activity (Hepatitis C virus genotype 1b, UniProt P26662); experiment: RNA-binding assay (gel mobility-shift); conditions: 32P-labeled ssRNA, 300 nM NS3, 0–100 µM tested
T2 construct: The full-length HCV NS3 protein, with serine protease and NTPase/helicase activities; made in house
T2 sequence (P26662 1027-1657): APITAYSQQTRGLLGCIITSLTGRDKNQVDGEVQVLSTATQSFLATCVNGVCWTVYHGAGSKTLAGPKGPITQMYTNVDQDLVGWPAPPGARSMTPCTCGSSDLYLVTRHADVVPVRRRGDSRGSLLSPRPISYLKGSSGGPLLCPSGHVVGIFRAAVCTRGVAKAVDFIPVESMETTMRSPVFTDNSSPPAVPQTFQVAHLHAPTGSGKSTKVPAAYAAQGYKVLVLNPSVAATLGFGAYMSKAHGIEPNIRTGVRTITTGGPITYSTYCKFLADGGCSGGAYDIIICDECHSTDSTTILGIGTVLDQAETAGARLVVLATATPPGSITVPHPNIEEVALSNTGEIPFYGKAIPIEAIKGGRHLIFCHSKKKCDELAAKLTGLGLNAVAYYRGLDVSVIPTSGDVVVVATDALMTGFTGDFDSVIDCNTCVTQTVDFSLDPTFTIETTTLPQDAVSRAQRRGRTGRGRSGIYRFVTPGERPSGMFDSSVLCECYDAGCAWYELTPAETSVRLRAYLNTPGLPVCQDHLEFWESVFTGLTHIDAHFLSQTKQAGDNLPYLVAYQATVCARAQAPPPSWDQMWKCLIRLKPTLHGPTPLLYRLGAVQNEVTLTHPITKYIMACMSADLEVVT
Method: As RNA binding is required for NS3 helicase activity, the effect of hypericin on NS3 RNA-binding activity was examined by gel mobility-shift assay (Figure 4). As a control, the non-specific binding of ssRNA to bovine serum albumin (BSA) was assessed (lane 2). The density of the upper bands corresponding to the NS3–ssRNA complex, which represents NS3 RNA-binding activity, decreased dose-dependently in the presence of hypericin, particularly in the concentration range of 3–10 µM.
NS3 RNA-binding activity was determined by gel mobility-shift assay, as described previously. The ssRNA (5′-[…]-3′) synthesized by Gene Design (Osaka, Japan) was labeled at the 5′-end with [γ-^32P]ATP (Muromachi Yakuhin) using T4 polynucleotide kinase (Toyobo, Osaka, Japan) at 37 °C for 60 min, and purified using the phenol-chloroform extraction method. The reaction mixture contained 30 mM Tris-HCl (pH 7.5), 100 mM NaCl, 2 mM MgCl2, 1 mM dithiothreitol, 20 U RNasin Plus (Promega), 300 nM NS3, 0.5 nM ^32P-labeled ssRNA, and increasing concentrations of hypericin in a total reaction volume of 20 μL. The reaction was performed at room temperature for 15 min. […] The labeled RNA bands were visualized using an Image Reader FLA-9000 (Fujifilm, Tokyo, Japan).

NS3 ATPase activity = molecular target: T3, NS3 ATPase activity (Hepatitis C virus genotype 1b, UniProt P26662); experiment: ATPase assay ([γ-32P]ATP hydrolysis, thin-layer chromatography); assay type: biochemical; conditions: autoradiography, poly(U) RNA, 300 nM NS3, 0–100 µM tested
T3 construct: The full-length HCV NS3 protein, with serine protease and NTPase/helicase activities; made in house
T3 sequence (P26662 1027-1657): as above
Method: As the unwinding ability of NS3 helicase is dependent on ATP hydrolysis, the amount of inorganic phosphate (Pi) released from radioisotope-labeled ATP ([γ-^32P]ATP) was measured to determine the effects of hypericin on the ATPase activity of NS3 (Figure 3). The released ^32Pi was separated by thin-layer chromatography and visualized using autoradiography. The density of the upper spots corresponding to Pi, which represents ATPase activity, decreased dose-dependently, particularly in the concentration range of 1–5 µM hypericin. […] It is thus likely that hypericin inhibits NS3 helicase via the inhibition of ATPase activity.
NS3 ATPase activity was determined directly by monitoring [γ-^32P]ATP hydrolysis by thin-layer chromatography, as described previously. The reaction mixture contained 25 mM MOPS-NaOH (pH 7.0), 1 mM dithiothreitol, 5 mM MgCl2, 5 mM CaCl2, 1 mM [γ-^32P]ATP (Muromachi Yakuhin, Tokyo, Japan), 300 nM NS3, 0.1 μg/μL poly(U) ssRNA (Sigma-Aldrich), and increasing concentrations of hypericin in a total reaction volume of 10 μL. The reaction was conducted at 37 °C for 10 min, and stopped by the addition of 10 mM EDTA. […] The cellulose sheet was dried, and the released [γ-^32P]phosphoric acid was visualized using an Image Reader FLA-9000 (Fuji film, Tokyo, Japan).

[4] = fluorescence helicase assay, dsRNA substrate, 240 nM NS3, 5 mM ATP, 37 °C, read-out: IC50 for NS3 helicase inhibition

T1 sequence (P26662 1027-1657): as above

O=C1c2cccc(O)c2C(=O)c2c(O)cccc21 [1,8-dihydroxyanthraquinone]
IC50 (HCV NS3 helicase [1]; [4]): > 200 µM

O=C1c2ccccc2C(=O)c2c(O)c(O)cc(O)c21 [1,2,4-trihydroxyanthraquinone]
IC50 (HCV NS3 helicase [1]): 11 µM

O=C1c2ccccc2C(=O)c2c1ccc(O)c2O [1,2-dihydroxyanthraquinone]
IC50 (HCV NS3 helicase [1]): > 200 µM

O=C(O)c1cc(O)c2c(c1)[C@H]([C@@H]1c3cccc(O)c3C(=O)c3c(O)cc(C(=O)O)cc31)c1cccc(O)c1C2=O [Sennidin A, sennidin A]
NS3 helicase inhibition in gel-based helicase assay (HCV NS3 helicase [2]): quite similar to that in the fluorescence helicase assay
IC50 (HCV NS3 helicase [1]; [4]): 0.8 µM
EC50 [3]: > 80 µM
CC50 at 72 h (Cytotoxicity assay (MTS)): > 80 µM

O=C1c2c(O)ccc(O)c2C(=O)c2c(NCCNCCO)ccc(NCCNCCO)c21 [mitoxantrone]
IC50 (NS3 helicase): 6.7 µM

O=C1c2ccccc2C(=O)c2c(O)ccc(O)c21 [1,4-dihydroxyanthraquinone]
IC50 (HCV NS3 helicase [1]; [4]): 54 µM

O=C1c2c(O)ccc(O)c2C(=O)c2c(O)ccc(O)c21 [1,4,5,8-tetrahydroxyanthraquinone]
IC50 (HCV NS3 helicase [1]; [4]): 6 µM

O=C1c2cccc(O)c2C(=O)c2cccc(O)c21 [1,5-dihydroxyanthraquinone]
IC50 (HCV NS3 helicase [1]; [4]): > 200 µM

CC(C)CCC[C@@H](C)[C@H]1CC[C@H]2[C@@H]3CC=C4C[C@@H](OS(=O)(=O)O)CC[C@]4(C)[C@H]3CC[C@]12C [Cholesterol sulfate]
IC50 (NS3 helicase; positive control of the gel-based helicase assay): 1.7 µM

O=C1c2ccc(O)c(O)c2C(=O)c2c(O)ccc(O)c21 [1,4,5,6-tetrahydroxyanthraquinone]
IC50 (HCV NS3 helicase [1]; [4]): 98 µM

Cc1cc(O)c2c(=O)c3c(O)cc(O)c4c5c(O)cc(O)c6c(=O)c7c(O)cc(C)c8c1c2c(c34)c(c78)c65 [Hypericin, hypericin]
NS3 helicase inhibition in gel-based helicase assay (HCV NS3 helicase [2]): quite similar to that in the fluorescence helicase assay
IC50 (HCV NS3 helicase [1]): 3 µM
Concentration range in which NS3 RNA-binding activity decreased dose-dependently (NS3 RNA-binding activity): 3 to 10 µM
SI, selectivity index (CC50/EC50) ([3]; CC50/EC50 in Huh-7 replicon cells): 11.7
EC50 [3]: 3.5 ± 0.2 µM
Concentration range in which NS3 ATPase activity decreased dose-dependently (NS3 ATPase activity): 1 to 5 µM
CC50 at 72 h (Cytotoxicity assay (MTS)): 41.1 ± 9.5 µM

O=C1c2ccccc2C(=O)c2c1cc(O)c(O)c2O [1,2,3-trihydroxyanthraquinone]
IC50 (HCV NS3 helicase [1]; [4]): 18 µM
